From patent US20240217978A1 (CHONG KUN DANG PHARMACEUTICAL CORP., priority 2021, published 2024) come the findings set out here.

As usually defined, the IC50 is the concentration needed to halve the response being measured. Low readings indicate greater potency, high ones weaker potency.

Sequence of human adenosine A2a receptor (P29274 whole entry): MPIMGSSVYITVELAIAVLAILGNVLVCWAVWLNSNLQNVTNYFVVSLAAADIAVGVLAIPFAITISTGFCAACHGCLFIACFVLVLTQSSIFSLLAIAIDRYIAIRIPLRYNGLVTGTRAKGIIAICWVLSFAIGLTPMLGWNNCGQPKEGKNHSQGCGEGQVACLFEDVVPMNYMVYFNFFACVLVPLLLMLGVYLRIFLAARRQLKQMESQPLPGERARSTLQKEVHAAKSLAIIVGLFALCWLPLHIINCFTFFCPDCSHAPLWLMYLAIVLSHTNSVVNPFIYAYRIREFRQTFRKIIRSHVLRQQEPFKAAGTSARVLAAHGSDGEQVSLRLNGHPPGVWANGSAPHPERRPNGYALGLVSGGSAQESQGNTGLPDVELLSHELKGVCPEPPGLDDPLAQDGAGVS

This test has as its target human adenosine A2a receptor (Homo sapiens (Human), UniProt P29274). Nature of the test: A2a receptor binding affinity, [3H]-NECA radioligand binding test. As to conditions: [3H]-NECA 37 nM; membrane from HEK-293 cells transfected with human adenosine A2a receptor. The procedure, abridged:
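IC50 values (μM) come from displacement of [3H]-NECA, used at 37 nM final, on human A2a receptor membranes from transfected HEK-293 cells. Incubation lasted one hour at room temperature in Tris/MgCl2/EDTA buffer, pH 7.4; filter-bound radioactivity was counted by scintillation.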
In turn, `Nc1nc(N2CCC[C@H]2C(=O)N2CCC(C(=O)Nc3cnccn3)CC2)nc2nc(-c3ccco3)nn12` [Example 80, 1-((7-amino-2-(furan-2-yl)-[1,2,4]triazolo[1,5-a][1,3,5]triazin-5-yl)-L-prolyl)-N-(pyrazin-2-yl)piperidin-4-carboxamide] yielded an IC50 of 7 nM.

Compound `CN(C(=O)C1CCN(C(=O)[C@@H]2CCCN2c2nc(N)n3nc(-c4ccco4)nc3n2)CC1)c1ccccc1` [Example 133, 1-((7-amino-2-(furan-2-yl)-[1,2,4]triazolo[1,5-a][1,3,5]triazin-5-yl)-L-prolyl)-N-methyl-N-phenylpiperidin-4-carboxamide] came in with an IC50 of 11 nM.

Take `Nc1nc(N2CCC[C@H]2C(=O)N2CCN(C(=O)c3ccccc3)CC2)nc2nc(-c3ccco3)nn12` [Example 46]: the IC50 worked out at 6 nM.

Turning to `Nc1nc(N2CCC[C@H]2C(=O)N2CCN(CCC(F)(F)F)CC2)nc2nc(-c3ccco3)nn12` [Example 281, (S)-(1-(7-amino-2-(furan-2-yl)-[1,2,4]triazolo[1,5-a][1,3,5]triazin-5-yl)pyrrolidin-2-yl)(4-(3,3,3-trifluoropropyl)piperazin-1-yl) methanone], the IC50 was 9 nM.

As to `C[C@H](Nc1nc(N)n2nc(-c3ccco3)nc2n1)C(=O)N1CCN(c2nccs2)CC1` [Example 251, (S)-2-((7-amino-2-(furan-2-yl)-[1,2,4]triazolo[1,5-a][1,3,5]triazin-5-yl)amino)-1-(4-(thiazol-2-yl)piperazin-1-yl)propan-1-one], the IC50 was found to be 13 nM.

`Cc1cnc(C(=O)N2CCN(C(=O)[C@@H]3CCCN3c3nc(N)n4nc(-c5ccco5)nc4n3)CC2)s1` [Example 103] had an IC50 of 6 nM.

With `Nc1nc(N2CCCC[C@H]2C(=O)N2CCN(Cc3ccc(F)cc3F)CC2)nc2nc(-c3ccco3)nn12` [Example 29, (S)-(1-(7-amino-2-(furan-2-yl)-[1,2,4]triazolo[1,5-a][1,3,5]triazin-5-yl)piperidin-2-yl)(4-(2,4-difluorobenzyl)piperazin-1-yl)methanone], the IC50 came out at 8 nM.

As to `Nc1nc(N2CCC[C@H]2C(=O)N2CC(COc3ccccc3)C2)nc2nc(-c3ccco3)nn12` [Example 114, (S)-(1-(7-amino-2-(furan-2-yl)-[1,2,4]triazolo[1,5-a][1,3,5]triazin-5-yl)pyrrolidin-2-yl)(3-(phenoxymethyl)azetidin-1-yl)methanone], the IC50 was determined as 8 nM.

Compound `CCCC[C@H](Nc1nc(N)n2nc(-c3ccco3)nc2n1)C(=O)N1CCN(CCCC)CC1` [Example 173, (S)-2-((7-amino-2-(furan-2-yl)-[1,2,4]triazolo[1,5-a][1,3,5]triazin-5-yl)amino)-1-(4-butylpiperazin-1-yl)hexan-1-one] showed an IC50 of 16 nM.

In turn, `Cc1ccc(-c2nc3nc(N4CCC[C@H]4C(=O)N4CCN(CCCC(F)(F)F)CC4)nc(N)n3n2)o1` [Example 300, (S)-(1-(7-amino-2-(5-methylfuran-2-yl)-[1,2,4]triazolo[1,5-a][1,3,5]triazin-5-yl)pyrrolidin-2-yl)(4-(4,4,4-trifluorobutyl)piperazin-1-yl)methanone] showed an IC50 of 9 nM.

`Nc1nc(N2CCC[C@H]2C(=O)N2CC3CCC(C2)N3CC(F)(F)F)nc2nc(-c3ccco3)nn12` [Example 204, ((S)-1-(7-amino-2-(furan-2-yl)-[1,2,4]triazolo[1,5-a][1,3,5]triazin-5-yl)pyrrolidin-2-yl)(8-(2,2,2-trifluoroethyl)-3,8-diazabicyclo[3.2.1]octan-3-yl)methanone] had an IC50 of 13 nM.

`C[C@H](Nc1nc(N)n2nc(-c3ccco3)nc2n1)C(=O)N1CCN(CC(F)(F)C(F)(F)C(F)(F)F)CC1` [Example 320, (S)-2-((7-amino-2-(furan-2-yl)-[1,2,4]triazolo[1,5-a][1,3,5]triazin-5-yl)amino)-1-(4-(2,2,3,3,4,4,4-heptafluorobutyl)piperazin-1-yl)propan-1-one] returned an IC50 of 2 nM.

In turn, `COCCOc1ccc(N2CCN(C(=O)[C@@H]3CCCN3c3nc(N)n4nc(-c5ccco5)nc4n3)CC2)cc1` [Example 310, (S)-(1-(7-amino-2-(furan-2-yl)-[1,2,4]triazolo[1,5-a][1,3,5]triazin-5-yl)pyrrolidin-2-yl)(4-(4-(2-methoxyethoxy)phenyl)piperazin-1-yl)methanone] registered an IC50 of 12 nM.

In turn, `Nc1nc(N[C@H](C(=O)N2CCN(CC(F)(F)F)CC2)C2CCCCC2)nc2nc(-c3nccs3)nn12` [Example 250, (S)-2-((7-amino-2-(thiazol-2-yl)-[1,2,4]triazolo[1,5-a][1,3,5]triazin-5-yl)amino)-2-cyclohexyl-1-(4-(2,2,2-trifluoroethyl)piperazin-1-yl)ethan-1-one] showed an IC50 of 9 nM.

As to `Nc1nc(N2CCC[C@H]2C(=O)N2CCN(S(=O)(=O)C3CC3)CC2)nc2nc(-c3ccco3)nn12` [Example 69, (S)-(1-(7-amino-2-(furan-2-yl)-[1,2,4]triazolo[1,5-a][1,3,5]triazin-5-yl)pyrrolidin-2-yl)(4-(cyclopropylsulfonyl)piperazin-1-yl)methanone], the IC50 came to 68 nM.

As for `Nc1nc(N2CCC[C@H]2C(=O)N2CCC3(CC2)CN(CC(F)(F)F)C3)nc2nc(-c3ccco3)nn12` [Example 362, (S)-(1-(7-amino-2-(furan-2-yl)-[1,2,4]triazolo[1,5-a][1,3,5]triazin-5-yl)pyrrolidin-2-yl)(2-(2,2,2-trifluoroethyl)-2,7-diazaspiro[3.5]nonan-7-yl)methanone], the IC50 is 30 nM.

In turn, `Nc1nc(N2CCC[C@H]2C(=O)N2CCN(CC(F)(F)C(F)F)CC2)nc2nc(-c3ccco3)nn12` [Example 226, (S)-(1-(7-amino-2-(furan-2-yl)-[1,2,4]triazolo[1,5-a][1,3,5]triazin-5-yl)pyrrolidin-2-yl)(4-(2,2,3,3-tetrafluoropropyl)piperazin-1-yl)methanone] returned an IC50 of 7 nM.

In turn, `Nc1nc(N[C@@H](Cc2ccccc2)C(=O)N2CCN(CC(F)(F)F)CC2)nc2nc(-c3ccco3)nn12` [Example 4] yielded an IC50 of 0.458 nM.

`CCOC[C@H](Nc1nc(N)n2nc(-c3ccco3)nc2n1)C(=O)N1CCN(c2ncccn2)CC1` [Example 307, (S)-2-((7-amino-2-(furan-2-yl)-[1,2,4]triazolo[1,5-a][1,3,5]triazin-5-yl)amino)-3-ethoxy-1-(4-(pyrimidin-2-yl)piperazin-1-yl)propan-1-one] yielded an IC50 of 7 nM.

Turning to `CC(C)C[C@H](Nc1nc(N)n2nc(-c3ccco3)nc2n1)C(=O)N1CCN(c2ccc(F)cc2F)CC1` [Example 167, (S)-2-((7-amino-2-(furan-2-yl)-[1,2,4]triazolo[1,5-a][1,3,5]triazin-5-yl)amino)-1-(4-(2,4-difluorophenyl)piperazin-1-yl)-4-methylpentan-1-one], the half-inhibitory concentration (IC50) worked out at 0.2 nM.

`Nc1nc(N2CCC[C@H]2C(=O)N2CCN(C3CCCCC3)CC2)nc2nc(-c3ccco3)nn12` [Example 54] returned an IC50 of 6 nM.

`Nc1nc(N2CCC[C@H]2C(=O)N2CCC(C3CCN(CC(F)(F)F)CC3)CC2)cc2nc(-c3ccco3)nn12` [Example 376, (S)-(1-(5-amino-2-(furan-2-yl)-[1,2,4]triazolo[1,5-c]pyrimidin-7-yl)pyrrolidin-2-yl)(1′-(2,2,2-trifluoroethyl)-[4,4′-bipiperidin]-1-yl)methanone]: the IC50 came out at 1 nM.

`CCC(O)(CC)CN1CCN(C(=O)[C@@H]2CCCN2c2nc(N)n3nc(-c4ccc(C)o4)nc3n2)CC1` [Example 88, (S)-(1-(7-amino-2-(5-methylfuran-2-yl)-[1,2,4]triazolo[1,5-a][1,3,5]triazin-5-yl)pyrrolidin-2-yl)(4-(2-ethyl-2-hydroxybutyl)piperazin-1-yl) methanone]: the IC50 was 12 nM.

Compound `COC[C@H](Nc1nc(N)n2nc(-c3ccco3)nc2n1)C(=O)N1CCN(CC(F)F)CC1` [Example 396, (S)-2-((7-amino-2-(furan-2-yl)-[1,2,4]triazolo[1,5-a][1,3,5]triazin-5-yl)amino)-1-(4-(2,2-difluoroethyl)piperazin-1-yl)-3-methoxypropan-1-one] had an IC50 of 29 nM.

The compound `C[C@H](Nc1nc(N)n2nc(-c3ccco3)nc2n1)C(=O)N1CCN(CC(F)(F)C(F)F)CC1` [Example 318, (S)-2-((7-amino-2-(furan-2-yl)-[1,2,4]triazolo[1,5-a][1,3,5]triazin-5-yl)amino)-1-(4-(2,2,3,3-tetrafluoropropyl)piperazin-1-yl)propan-1-one] gave an IC50 of 19 nM.

Turning to `CC(C)C[C@H](Nc1nc(N)n2nc(-c3ccco3)nc2n1)C(=O)N1CCN(CC(F)(F)F)CC1` [Example 215, (S)-2-((7-amino-2-(furan-2-yl)-[1,2,4]triazolo[1,5-a][1,3,5]triazin-5-yl)amino)-4-methyl-1-(4-(2,2,2-trifluoroethyl)piperazin-1-yl)pentan-1-one], the IC50 was 8 nM.

Compound `Nc1nc(N2CCC[C@H]2C(=O)N2CC3(CCN(CC(F)(F)F)CC3)C2)nc2nc(-c3ccco3)nn12` [Example 363, (S)-(1-(7-amino-2-(furan-2-yl)-[1,2,4]triazolo[1,5-a][1,3,5]triazin-5-yl)pyrrolidin-2-yl)(7-(2,2,2-trifluoroethyl)-2,7-diazaspiro[3-5]nonan-2-yl)methanone] showed an IC50 of 12 nM.

The compound `Nc1nc(N2CC[C@H]2C(=O)N2CCN(CC(=O)N3CCOCC3)CC2)nc2nc(-c3ccco3)nn12` [Example 65, (S)-2-(4-(1-(7-amino-2-(furan-2-yl)-[1,2,4]triazolo[1,5-a][1,3,5]triazin-5-yl)azetidine-2-carbonyl)piperazin-1-yl)-1-morpholinoethan-1-one] had an IC50 of 10 nM.

As to `Cc1ccc(-c2nc3nc(N4CCC[C@H]4C(=O)N4CCN(Cc5ccc(F)cc5F)CC4)nc(N)n3n2)o1` [Example 40, (S)-(1-(7-amino-2-(5-methylfuran-2-yl)-[1,2,4]triazolo[1,5-a][1,3,5]triazin-5-yl)pyrrolidin-2-yl)(4-(2,4-difluorobenzyl)piperazin-1-yl)methanone], the IC50 turned out to be 4 nM.
